# From patent publication US6350757B1, “Beta-carboline compounds” (Les Laboratoires Servier, priority 1999, dated 2002)
# What was measured:
# 5-HT2C receptors = target: T1, 5-HT2C receptors (Rattus norvegicus, UniProt P08909); assay: Penile erection test in the rat, erection induced by Ro 60-0175; format: in vivo; conditions: for ED50: rat, sc, read-out: ID50 (inhibitory dose50) for inhibition of penile erections induced by Ro 60-0175
# T1 construct: Male rats of the Wistar line (Iffa-Credo, France); from tissue; host or cells: whole animal: male Wistar rat (in vivo)
# T1 sequence (P08909 33-460): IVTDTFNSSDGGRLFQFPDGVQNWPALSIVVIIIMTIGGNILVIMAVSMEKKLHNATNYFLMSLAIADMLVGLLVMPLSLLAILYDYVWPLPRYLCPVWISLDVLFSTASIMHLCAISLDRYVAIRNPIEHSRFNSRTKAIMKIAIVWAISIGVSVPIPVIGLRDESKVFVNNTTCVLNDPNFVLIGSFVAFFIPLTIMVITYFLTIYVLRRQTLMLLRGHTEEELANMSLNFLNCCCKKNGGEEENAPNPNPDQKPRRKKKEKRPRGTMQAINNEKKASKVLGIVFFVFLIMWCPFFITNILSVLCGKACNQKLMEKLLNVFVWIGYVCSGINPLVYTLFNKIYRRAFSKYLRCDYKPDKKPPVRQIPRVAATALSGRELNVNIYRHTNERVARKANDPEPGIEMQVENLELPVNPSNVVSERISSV
# Protocol: Penile Erection Test in the Rat, with Erection Induced by Ro 60-0175 (1.25 mg/kg, s.c.)
# This test (Eur. J. Pharma., 1997, 325, 9-12) enables evaluation of the capacity of pharmacological agents to inhibit penile erections induced by the administration of Ro 60-0175, a selective 5-HT2C agonist. Inhibition is thus predictive of an antagonist activity in respect of 5-HT2C receptors. Male rats of the Wistar line (Iffa-Credo, France), weighing 120-140 g on the day of the experiment, are placed individually into plexiglass observation boxes (7.5×18×30 cm) having just been administered the product or its carrier. Thirty minutes later, the animals are administered Ro 60-0175 (1.25 mg/kg, s.c.) and the number of erections achieved in the course of the following 30 minutes is counted.
Compound,melting point,ED50 (5-HT2C receptors),further results
"CCOC(=O)C1(C2NCCc3c2[nH]c2ccc(Cl)cc32)CCC1.Cl (stereo not drawn) [Example 1, Ethyl 1-(6-chloro-2,3,4,9-tetrahydro-1H-β-carbolin-1-yl)cyclobutanecarboxylate Hydrochloride]",,0.9 mg/kg,
"CCOC(=O)C1(C2NCCc3c2[nH]c2cc(Cl)c(Cl)cc32)CCC1.Cl (stereo not drawn) [Example 6, Ethyl 1-(6,7-dichloro-2,3,4,9-tetrahydro-1H-β-carbolin-1-yl)cyclobutanecarboxylate Hydrochloride]",,0.9 mg/kg,
"CCOC(=O)C1(C2NCCc3c2[nH]c2ccc(Cl)c(Cl)c32)CCC1.Cl (stereo not drawn) [Example 18, Ethyl 1-(5,6-dichloro-2,3,4,9-tetrahydro-1H-β-carbolin-1-yl)cylobutanecarboxylate Hydrochloride]",,,"ID50 (inhibitory dose50) for inhibition of penile erections induced by Ro 60-0175 (5-HT2C receptors; s.c., male Wistar rats, product given 30 min before Ro 60-0175 (1.25 mg/kg, s.c.), erections counted over following 30 min): 0.5 mg/kg"
"CCOC(=O)C1(C2NCCc3c2[nH]c2ccc(OC)cc32)CCC1.Cl (stereo not drawn) [Example 7, Ethyl 1-(6-methoxy-2,3,4,9-tetrahydro-1H-β-carbolin-1-yl)cyclobutanecarboxylate Hydrochloride]",,1.1 mg/kg,

# Continued, in another order:
melting point,Compound,ED50 (5-HT2C receptors),further results
232 to 233 °C,COC(=O)C1(C2NCCc3c2[nH]c2ccc(Cl)cc32)CCC1.Cl (stereo not drawn),,
218 to 219 °C,"CCOC(=O)C1(C2c3[nH]c4ccc(Cl)cc4c3CCN2C(C)=O)CCC1 (stereo not drawn) [Example 79, Ethyl 1-(2-acetyl-6-chloro-2,3,4,9-tetrahydro-1H-β-carbolin-1-yl)cyclobutanecarboxylate]",,
